Some test systems named below: M14 melanoma; A549 NSCLC; DU-145 prostate; PC-3 prostate; OVCAR-3 ovarian; SW-620 colon; SK-MEL-2 melanoma; MOLT-4 leukemia; OVCAR-4 ovarian; OVCAR-5 ovarian; HCT-116 colon; SNB-19 CNS; KM12 colon; CAKI-1 renal; RXF 393 renal; COLO 205 colon; LOX IMVI melanoma; HOP-92 NSCLC; TK-10 renal.
Assay in all cases: NCI anticancer screen, dose series, 48 h

Structures are written as SMILES.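 1) Cells in 96-well plates. 2) Compound, 48 h, 5 concentrations. 3) Linear interpolation between surrounding doses. 4) Unreached endpoint = highest concentration. Definition used: TGI = concentration required for complete inhibition of growth.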

Consider `CCOc1ccc(N/C(=C(/C(Cl)=C(/Cl)NCCO)[N+](=O)[O-])n2nnc3ccccc32)cc1`, for which the TGI in the assay with M14 melanoma is more than 100 µM; with A549 NSCLC it was more than 100 µM; with DU-145 prostate it was 36 µM; with PC-3 prostate it was 86.4 µM; in the assay with OVCAR-3 ovarian, 35.2 µM; in the assay on SW-620 colon, 39.9 µM. The TGI with SK-MEL-2 melanoma, with MOLT-4 leukemia, in the assay on OVCAR-4 ovarian, in the assay with OVCAR-5 ovarian, in the assay with HCT-116 colon and with SNB-19 CNS was more than 100 µM each time. In addition, the TGI is more than 100 µM in the assay on KM12 colon, 27.8 µM in the assay with CAKI-1 renal, 31.7 µM in the assay with RXF 393 renal and 29.7 µM in the assay with COLO 205 colon.
In the case of `C[C@@H]1C[C@@H](O)[C@@]2(O)C13CC(=O)OC(C3)[C@@H](C)[C@@]2(C)CO` (some centres not stated), the TGI in the assay with LOX IMVI melanoma, in the assay with M14 melanoma, with A549 NSCLC, in the assay with DU-145 prostate, in the assay with PC-3 prostate and in the assay with HOP-92 NSCLC was more than 100 µM in each case. For the same molecule, the TGI with OVCAR-3 ovarian, with SW-620 colon, in the assay with SK-MEL-2 melanoma, in the assay with MOLT-4 leukemia, with OVCAR-4 ovarian and in the assay with OVCAR-5 ovarian was more than 100 µM throughout. The TGI in the assay on HCT-116 colon, with SNB-19 CNS, in the assay on KM12 colon, with TK-10 renal, with RXF 393 renal and in the assay on COLO 205 colon was more than 100 µM each time.
As for `CCCCSC1=N/C(=C\c2ccco2)C(=O)N1`, the TGI in the assay with M14 melanoma, in the assay on A549 NSCLC, in the assay with DU-145 prostate, in the assay with PC-3 prostate, with OVCAR-3 ovarian and in the assay on SW-620 colon was more than 100 µM throughout. In addition, the TGI in the assay on SK-MEL-2 melanoma, in the assay with MOLT-4 leukemia, in the assay with OVCAR-4 ovarian, in the assay on OVCAR-5 ovarian, with HCT-116 colon and with SNB-19 CNS was more than 100 µM in each case. The TGI with KM12 colon was more than 100 µM; in the assay on CAKI-1 renal it was more than 100 µM; in the assay with TK-10 renal, more than 100 µM; in the assay on RXF 393 renal, 64.7 µM; in the assay on COLO 205 colon it was more than 100 µM.
Take `COc1ccc(C2CC(=O)Oc3ccccc3O2)cc1` (configuration not stated): the TGI in the assay on A549 NSCLC, with DU-145 prostate, with PC-3 prostate, with OVCAR-3 ovarian, in the assay on SW-620 colon and in the assay on MOLT-4 leukemia was more than 100 µM throughout. In addition, the TGI with OVCAR-4 ovarian, in the assay with HCT-116 colon, in the assay on SNB-19 CNS, in the assay with KM12 colon, with TK-10 renal and in the assay on RXF 393 renal was more than 100 µM each time. This molecule also registered a TGI in the assay on COLO 205 colon of more than 100 µM.
Regarding `CC1(C)[C@@H]2C[C@H]1C(Cc1ccc(C[C@H]3c4cc(-c5ccccn5)ncc4[C@H]4C[C@@H]3C4(C)C)cc1)c1cc(-c3ccccn3)ncc12` (some centres not stated), the TGI in the assay on LOX IMVI melanoma was 7.55 µM; in the assay on M14 melanoma, more than 100 µM; in the assay on A549 NSCLC, 87.9 µM; in the assay on DU-145 prostate, more than 100 µM; with PC-3 prostate, 22.8 µM; with OVCAR-3 ovarian it was 18.8 µM. Moreover, the TGI with SW-620 colon was more than 100 µM; in the assay with SK-MEL-2 melanoma, more than 100 µM; in the assay with OVCAR-5 ovarian it was more than 100 µM; in the assay with HCT-116 colon it was 18.3 µM; in the assay with SNB-19 CNS it was more than 100 µM; with KM12 colon it was 38.4 µM. In addition, the TGI is more than 100 µM with CAKI-1 renal, more than 100 µM in the assay with TK-10 renal, 77.8 µM in the assay on RXF 393 renal and 13.7 µM with COLO 205 colon.
With `NC(=O)C(=CN1C(=O)CC(=O)NC1=S)C(N)=O`, the TGI in the assay with LOX IMVI melanoma, in the assay with M14 melanoma, in the assay on A549 NSCLC, in the assay with DU-145 prostate, with HOP-92 NSCLC and in the assay on OVCAR-3 ovarian was more than 100 µM each time. The TGI in the assay on SW-620 colon, in the assay with SK-MEL-2 melanoma, in the assay with MOLT-4 leukemia, with OVCAR-4 ovarian, in the assay on OVCAR-5 ovarian and in the assay on HCT-116 colon was more than 100 µM in each case. For the same molecule, the TGI with SNB-19 CNS, in the assay on KM12 colon, with CAKI-1 renal, with TK-10 renal, in the assay on RXF 393 renal and with COLO 205 colon was more than 100 µM in each case.
Consider `C#CCCOC1(OC)N=NC(C)(C)O1` (configuration not stated), for which the TGI in the assay with LOX IMVI melanoma, in the assay with M14 melanoma, in the assay on A549 NSCLC, in the assay on DU-145 prostate, in the assay on PC-3 prostate and in the assay with HOP-92 NSCLC was more than 100 µM throughout. For the same molecule, the TGI in the assay with OVCAR-3 ovarian, with SW-620 colon, in the assay with SK-MEL-2 melanoma, with MOLT-4 leukemia, with OVCAR-4 ovarian and in the assay with OVCAR-5 ovarian was more than 100 µM each time. Moreover, the TGI in the assay on HCT-116 colon, in the assay with SNB-19 CNS, with KM12 colon, in the assay with RXF 393 renal and in the assay with COLO 205 colon was more than 100 µM in each case.
Regarding `Cn1cc2c(=O)n3ncn(-c4ccc(Br)cc4)c3nc2n1`, the TGI in the assay on M14 melanoma, in the assay on A549 NSCLC, in the assay with DU-145 prostate, in the assay with PC-3 prostate, in the assay with HOP-92 NSCLC and with OVCAR-3 ovarian was more than 100 µM in each case. In addition, the TGI with SW-620 colon, with SK-MEL-2 melanoma, in the assay on MOLT-4 leukemia, in the assay with OVCAR-4 ovarian, in the assay on OVCAR-5 ovarian and in the assay on HCT-116 colon was more than 100 µM each time. Besides, the TGI with SNB-19 CNS, in the assay with KM12 colon, in the assay on CAKI-1 renal, in the assay with TK-10 renal, in the assay with RXF 393 renal and with COLO 205 colon was more than 100 µM throughout.
In the case of `Cc1cn(CC2=NCC(C)(C)CN2)c(=O)[nH]c1=O`, the TGI in the assay with LOX IMVI melanoma, in the assay on M14 melanoma, in the assay with A549 NSCLC, in the assay on DU-145 prostate, in the assay on PC-3 prostate and in the assay with HOP-92 NSCLC was more than 100 µM each time. The TGI in the assay on SW-620 colon, in the assay on SK-MEL-2 melanoma, in the assay on OVCAR-5 ovarian, with HCT-116 colon, in the assay on SNB-19 CNS and in the assay with TK-10 renal was more than 100 µM in each case. For the same molecule, the TGI with RXF 393 renal and with COLO 205 colon was more than 100 µM each time.

Source of the values: PubChem BioAssay (NCI).
